# Source: ChEMBL document CHEMBL3507680, “University of Dundee, Gates Library screen for HepG2 cell viability”
# Experiment: Human HepG2 cell viability assay in 384 well format
# Assay type: toxicity, cell-based
# Parameters: dose 125 nL, time 70.5 hour; concentration not given beside the values
# Conditions: HepG2 cells, read-out: Inhibition
row,Compound,cytotoxicity at 70.5 h
1,O=C(Cc1ccccn1)N1C[C@@H]2CC[C@H](C1)N(Cc1ccccc1)C2=O,6.93%
2,O=C1CC[C@H]2CN(Cc3ncc[nH]3)CC[C@H]2N1CC1CCNCC1,-1.94%
3,CC(NS(C)(=O)=O)C(=O)N1CCCN(Cc2cscn2)CC1 (stereo unspecified),-1.86%
4,Cc1ccccc1-n1cc(C2=CCN(CCn3cc[nH]c3=O)CC2)cn1,-6.71%
5,Cc1nc(CN2CCN(c3nc4c(s3)c(C)nn4C)CC2)cs1,-3.02%
6,COc1cc(N(C)CCCn2nc(C)cc2C)ncn1,-10.8%
7,Cc1ccc(F)cc1-n1c(COC(C)C)n[nH]c1=O,-5.58%
8,CC(C)N1CCC(NC(=O)NC2CCOc3ccc(Br)cc32)CC1 (stereo unspecified),0.813%
9,O=C(Nc1nncs1)N1CCCN(C2CCCCC2)CC1,-12.6%
10,CCS(=O)(=O)c1ncc(CN(C)Cc2ccccc2Cl)n1CCOC,-2.37%
11,COc1ccc(C2=CCN(C(=O)CN(C)CC(N)=O)CC2)cc1,-2.43%
12,CC[C@@H](C)[C@H](NC(=O)NC1CCS(=O)(=O)C1)C(=O)NCc1ccncc1 (stereo partly specified),10.2%
13,CCOCc1nn(CC2CC2)c2c1CN(Cc1ccco1)CC2,-6.88%
14,O=C(CCc1ccccc1)N[C@H]1CC[C@@]2(CCC(=O)N2)CC1,-8.44%
15,CCN(CC)C1CCN(C(=O)c2cc(-n3cccn3)ccc2Cl)CC1,-0.746%
16,COc1cc(N2C[C@@H]3COC[C@]3(COc3ccc(C#N)cn3)C2)ncn1,7.01%
17,Cc1noc(C(C)SCc2ccccn2)n1 (stereo unspecified),-8.37%
18,OCc1cc2ccccc2nc1NCC1(O)CCC1,-8.77%
19,Cc1cc(=O)n(CC(=O)NCCC(C)C)c(-c2cccc(Cl)c2)n1,-1.79%
20,CC1CCC(NS(=O)(=O)CC(=O)NCC2CCC2)CC1 (stereo unspecified),-13.2%
21,O=C(Cn1ccc2ccc(F)cc21)NCc1ccc(C(=O)O)cc1,18%
22,Cn1ccc(C(=O)NCc2cccc(N3CCCCC3=O)c2)cc1=O,-4.99%
23,CCCc1nc(CN(CC)C(=O)c2ccc3ncsc3c2)no1,-0.393%

row,Compound,cytotoxicity at 70.5 h
1,O=C1CCC2(CCOC2)CN1Cc1ccc2nsnc2c1 (stereo unspecified),-3.21%
2,O=C(N1CCOCC1)N1CCOC[C@H](Oc2ccc(C(F)(F)F)cc2)C1,-5.44%
3,CCOCCCNC(=O)CN(c1ccc(C)c(C)c1)S(C)(=O)=O,-9.65%
4,Fc1cccnc1N1CCC(NCc2cccc3cn[nH]c23)C1 (stereo unspecified),3.51%
5,Cc1ccc(S(=O)(=O)N2CCC(c3n[nH]cc3C)C2)cc1 (stereo unspecified),-1.04%
6,Cc1nn(C)c2c(N3CCN(C(=O)C(C)C)CC3)ncnc12,-5.46%
7,CC(=O)NCC(=O)N1CCOC(c2cccc(N)n2)C1 (stereo unspecified),15.3%
8,CN(C)c1ncccc1N(C)C(=O)Cn1cc(-c2ccccc2)nn1,-3.41%
9,Cc1cnn(CCNCc2cc(=O)n3cc(Cl)ccc3n2)c1,-6.7%
10,CN(CCNC(=O)NCc1ccsc1)C1CCCC1,-8.28%
11,CCOc1ccnc(N2CCN(C(=O)c3ccc(C#N)cc3)CC2)n1,2.75%
12,CS(=O)(=O)CCNC(=O)N(Cc1ccoc1)C1CCCCC1,-7.65%
13,CC(C)=CCCC1(C)CCC(=O)N(CCNc2nc(C)cc(=O)[nH]2)C1 (stereo unspecified),-10.3%
14,CCc1nnc(C2Cc3ccccc3CN2Cc2cc(C)on2)o1 (stereo unspecified),-2.94%
15,Cc1ccc(C2CN(CCS(=O)(=O)C(C)C)CCO2)c(C)c1 (stereo unspecified),-1.77%
16,CC(C)NC(=O)c1ccc2c(c1)C(c1nc[nH]n1)CN2S(C)(=O)=O (stereo unspecified),-14.8%
17,Cc1nn(C)cc1Cn1c(=O)cnc2ccccc21,-19.1%
18,O=C(Cc1ccc2c(c1)CCO2)Nc1cccnc1-n1cncn1,16.3%
19,O=C(CCNc1ncccn1)N1CCCC(n2ccnc2)C1 (stereo unspecified),-2.71%
20,Cc1cc(C)n(CC2CCCN2C(=O)c2cn[nH]c2C)n1 (stereo unspecified),-1.06%
21,Cc1ccc(NCc2cn3c(n2)CN(Cc2ccc(C)o2)CC3)nn1,-4.46%
22,CCCc1nc(N2CC[C@@H](c3ccc4ccccc4c3)[C@H](O)C2)no1,-0.24%
23,O=C1NCC(C(=O)Nc2ncc(Cc3ccc(F)cc3)s2)N1 (stereo unspecified),-3.14%

row,Compound,cytotoxicity at 70.5 h
1,Cc1nnc(CN(Cc2ccc(Cl)c(Cl)c2)C(C)C)o1,-14%
2,CCC(=O)NCc1cc(C2CC2)n(C2CCCC2)n1,13.9%
3,CSCCC(Nc1nc(C)cc(C)n1)C(=O)NCC1CCOCC1 (stereo unspecified),-8.81%
4,Cc1cnccc1CN(C)C1CCN(c2ncnc3[nH]cnc23)CC1,-6.65%
5,CC(C)CN1CCN(Cc2nc3ccccc3[nH]2)[C@H]2CS(=O)(=O)C[C@H]21,-11.1%
6,COc1c(CNCc2ccnc(N3CCCC3)c2)c(C)nn1C,-0.752%
7,CCc1ncc(CN2CCc3nc4sc(C)cc4c(=O)n3CC2)cn1,17.6%
8,CNC(=O)CC1CCN(C(=O)NCC2(c3ccccc3F)CC2)CC1,-3.18%
9,CC(C)=CCN1C[C@@H]2CN(C(=O)c3cnccc3C)C[C@]2(C(=O)O)C1,-7.13%
10,CCn1c(CC2CCN(C(=O)c3ccnn3C)CC2)n[nH]c1=O,-6.64%
11,Cn1c(=O)c2c(n3ncnc13)NC(=O)CC2c1cccc(F)c1 (stereo unspecified),-11.8%
12,CC(C)C(C(=O)N(C)C)c1cccc(Cl)c1 (stereo unspecified),-11%
13,CN1CCN(Cn2nc(-c3cccs3)ccc2=O)CC1,-29.8%
14,CO[C@@H]1CCN(C(=O)c2ccccn2)[C@H]1Cc1ccccc1,-16.2%
15,CN1CC(=O)N(c2cccc(F)c2)CC12CCN(Cc1ccncc1)C2 (stereo unspecified),9.43%
16,CN(Cc1c(F)cccc1Cl)C(=O)c1cnn(CCN2CCCCC2)c1,18.7%
17,O=C(c1cnn(-c2ccccc2Cl)c1)N1CCN(CCO)CC1,-5.36%
18,O=C(Cn1cccn1)NCC1(c2ccccc2)CC1,24.2%
19,CC1CN(CC(=O)NC(=O)NCc2cccs2)CCN1CC(F)(F)F (stereo unspecified),-11%
20,CC(C)C(=O)N1CCC2(CC1)NC(=O)[C@H]1CN(Cc3cccnc3)C[C@H]12,4.61%
21,CN(CCO)C[C@@H]1CN(C(=O)c2cccc(OC(F)F)c2)C[C@@H]1CO,-5.3%
22,Cc1nn(C)c(N2CCOCC2)c1CNCc1ccoc1C,-11.3%
23,CC(C)c1nc(CC(=O)N2CCCC(n3cncn3)C2)cs1 (stereo unspecified),2.88%

row,Compound,cytotoxicity at 70.5 h
1,O=C(c1cc(COc2ccc3c(c2)OCO3)[nH]n1)N1CC=CC1CO (stereo unspecified),-8.31%
2,Cc1ccc2c(n1)N(Cc1cccnc1)CCN(C(=O)C1CCC1)C2,-12.9%
3,COC(=O)COn1c(SCC(=O)OC)nc2ccccc2c1=O,-6.15%
4,O=c1nc(SCc2ccncc2)c2c(n1CCO)CCCC2,14.9%
5,CCCN(C(=O)CN1CCN(CC(C)O)CC1)C1=CCCCC1 (stereo unspecified),35.9%
6,CC(=O)N1CCN(Cc2coc(-c3cccc(F)c3)n2)CC1,-19.9%
7,c1cncc(O[C@H]2CC[C@H]3[C@H]2OCCN3C2CCCC2)c1,-1.6%
8,CCN(Cc1nc2c(cnn2C)c(=O)[nH]1)c1ccc(F)cc1,-3.68%
9,O=C(c1cccc(Cl)c1)N1CC[C@@H](N2CCC(O)CC2)[C@H](O)C1,16%
10,OC1(CNCCc2csc(-c3ncccn3)n2)CCNC1 (stereo unspecified),-14.5%
11,CNC(=O)CS(=O)(=O)C1CCN(S(=O)(=O)c2cccc(Cl)c2C)CC1,-9.92%
12,Cc1nc(CN2CCCN(C(=O)CCc3ccco3)CC2)cs1,-12.4%
13,CCCn1cc(-c2ccnc(NC3CCCc4ccccc43)n2)c(C)n1 (stereo unspecified),18.9%
14,CC(C)N1[C@H](Cn2cncn2)C[C@@H]2CN(Cc3nccn3C)CC[C@@H]21,-6.18%
15,C[C@@H]1CN(Cc2nnc(-c3cccnc3)o2)CC[C@]1(C)O,6.07%
16,CNC(=O)COc1cccc(CNC(=O)c2c(C)noc2C)c1,-10.6%
17,Cc1nc(N2CCOCC2)nc2c1CCN(C(=O)N1CCCC1)CC2,-2.06%
18,COc1ccccc1OCCNC(=O)CN1CCc2cncnc2C1,-5.72%
19,Cc1ccccc1CN1CCC(c2nn(CCN)c3nccnc23)C1 (stereo unspecified),-0.306%
20,CC(C)c1ccccc1OCCNC(=O)N1CCC2(CC1)OCCO2,-2.15%
21,Cc1ccc(CN2CCC(O)(Cn3ccc4ncccc43)CC2)o1,-0.742%
22,Cc1nc(C(=O)N2CCc3[nH]nc(Nc4ccccc4)c3C2)co1,-1.67%
23,O=C1CC(c2ccsc2)c2c(n(C3CCOCC3)[nH]c2=O)N1 (stereo unspecified),14.8%

row,Compound,cytotoxicity at 70.5 h
1,COC(=O)N1CCCCC1C(=O)N1CCCN(c2ccnc(C)c2)CC1 (stereo unspecified),-7.79%
2,CC(C(=O)N1CCCC1)S(=O)(=O)Cc1nc(C(C)(C)C)no1 (stereo unspecified),-8.31%
3,CC(CO)CN(Cc1ccccc1)Cc1cnc2ccccc2n1 (stereo unspecified),-8.82%
4,Cc1cc(CN2CCN(Cc3ccc(C#N)cc3F)CC2)no1,1.27%
5,COc1ccc(CNC(=O)CCSCc2csc(C)n2)cn1,-4.07%
6,Cc1c(Cl)cccc1OCC(=O)NC1(C#N)CCSC1 (stereo unspecified),-10.3%
7,O=C(c1ccncc1)N1CC2(CCNCC2)c2cc(Cl)ccc21,-6.69%
8,CS(=O)(=O)N1C[C@@H]2CC[C@H](C1)N(Cc1cscn1)C2=O,-11.4%
9,c1ccc(NC[C@@H]2CCC[C@@H]3CN(Cc4nccs4)C[C@@H]32)nc1,-0.385%
10,CNS(=O)(=O)CC(=O)N(C1CC1)C1Cc2ccccc2C1,-13.4%
11,OC1(CNCCc2csc(-c3cccnc3)n2)CCNC1 (stereo unspecified),-14.2%
12,Cc1nn(C)c2cnn(Cc3ccc(C(=O)NCC4CCCO4)o3)c12 (stereo unspecified),-5.42%
13,Cc1nc(NC2CCCC2)cc(C2CCN2C(=O)c2ccccn2)n1 (stereo unspecified),-4.92%
14,c1ccc(NCc2cn3c(n2)CN(Cc2nccs2)CC3)nc1,-0.336%
15,Cc1ccc2c(c1)OC(C)(C)CC2NC(=O)C1CCN(C)CC1 (stereo unspecified),-9.96%
16,CN(C)c1ncc(CNC2CC(=O)N(CCc3cccc(Cl)c3)C2)s1 (stereo unspecified),-4.44%
17,COc1ccccc1C(=O)NS(=O)(=O)c1cccc(C#N)c1,-7.53%
18,CC(=O)N1CCC2(CC1)CCN(C(=O)c1cccc(C(F)(F)F)c1)C2,-13.6%
19,O=C(CCn1ccnn1)N1CCCC(n2cncn2)C1 (stereo unspecified),-6.6%
